{"source": "ChEMBL document CHEMBL1201862", "about": "“PubChem BioAssay data set” (2004)", "key": {"[1]": {"assay": "inhibitors of intracellular T. cruzi replication, confirmation, NIH3T3 host cells, beta-gal luminescence (AID 2044);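 also: luminescent beta-galactosidase reporter signal from transgenic T. cruzi replicating inside host cells; inhibitors lower the luminescence signal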", "assay_type": "functional, cell-based"}, "[2]": {"assay": "cytotoxicity toward NIH3T3 fibroblasts, dose response, counter-screen, cell-based, ATP luminescence, mouse fibroblasts (AID 2010);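 also: cells exposed to compound for about 90 hours before reading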", "assay_type": "functional"}, "[3]": {"biological_target": "T1, Heat shock factor protein 1 (Mus musculus, UniProt P38532)", "T1 sequence (P38532 whole entry)": "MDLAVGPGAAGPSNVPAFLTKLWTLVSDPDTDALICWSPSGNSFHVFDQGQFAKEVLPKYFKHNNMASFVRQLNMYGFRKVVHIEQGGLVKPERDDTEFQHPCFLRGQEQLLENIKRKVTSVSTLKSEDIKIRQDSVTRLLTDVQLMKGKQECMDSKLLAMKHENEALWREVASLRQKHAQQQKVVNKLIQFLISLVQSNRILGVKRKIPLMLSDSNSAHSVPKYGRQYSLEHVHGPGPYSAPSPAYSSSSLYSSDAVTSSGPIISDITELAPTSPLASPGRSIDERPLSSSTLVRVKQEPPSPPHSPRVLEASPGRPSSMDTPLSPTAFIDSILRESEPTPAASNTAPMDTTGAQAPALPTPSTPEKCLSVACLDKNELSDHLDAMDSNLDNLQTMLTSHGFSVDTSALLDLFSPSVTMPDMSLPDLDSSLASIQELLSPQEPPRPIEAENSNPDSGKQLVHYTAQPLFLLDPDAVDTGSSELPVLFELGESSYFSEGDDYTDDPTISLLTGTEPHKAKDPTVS", "assay": "inhibition of MG132-induced HSE-luciferase signal, confirmation, cell-based, NIH3T3, luminescence, dose retest (AID 2382);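 also: NIH3T3 fibroblasts with HSF1-driven luciferase reporter stressed by proteasome inhibitor MG132; luminescence from HSF1-driven luciferase expression after 8 hours of MG132 stress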", "assay_type": "functional"}, "[4]": {"system": "Streptococcus sp. 'group A'", "assay": "growth inhibition of control SK(-) GAS strain, dose response, counter-screen for streptokinase expression inhibitor project, luminescence, kanamycin, BacTiterGlo, confirmation (AID 1900)", "assay_type": "functional, organism-based"}, "[5]": {"biological_target": "T2, Streptokinase A (Streptococcus pyogenes serotype M1, UniProt P10520)", "T2 sequence (P10520 whole entry)": "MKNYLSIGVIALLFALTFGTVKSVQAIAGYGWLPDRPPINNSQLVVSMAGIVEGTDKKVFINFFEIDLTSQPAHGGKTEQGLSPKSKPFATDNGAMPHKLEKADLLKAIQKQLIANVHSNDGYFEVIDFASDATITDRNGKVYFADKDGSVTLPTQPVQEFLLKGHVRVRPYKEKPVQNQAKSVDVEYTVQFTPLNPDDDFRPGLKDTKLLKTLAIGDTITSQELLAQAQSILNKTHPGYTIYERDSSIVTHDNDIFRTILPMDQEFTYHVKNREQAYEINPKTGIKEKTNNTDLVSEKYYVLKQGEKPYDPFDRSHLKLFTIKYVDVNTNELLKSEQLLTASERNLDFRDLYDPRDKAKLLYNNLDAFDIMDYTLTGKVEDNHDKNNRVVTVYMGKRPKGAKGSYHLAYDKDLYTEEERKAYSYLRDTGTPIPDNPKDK", "assay": "S. pyogenes streptokinase expression inhibitors, potency, dose response, plasminogen activation absorbance, OD405 (AID 1914);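 also: secreted streptokinase activity via plasminogen activation per viability signal from cell pellet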", "assay_type": "functional, Streptococcus pyogenes M1 GAS"}, "[6]": {"system": "Streptococcus", "assay": "Group A Streptococcus viability loss, dose response, counter-screen for streptokinase expression inhibitor project, luminescence, BacTiterGlo (AID 1915);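 also: potency for reduction of bacterial viability or growth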", "assay_type": "functional, organism-based"}, "[7]": {"biological_target": "Cytochrome P450 2C9 (Homo sapiens, UniProt P11712)", "sequence (P11712 whole entry)": "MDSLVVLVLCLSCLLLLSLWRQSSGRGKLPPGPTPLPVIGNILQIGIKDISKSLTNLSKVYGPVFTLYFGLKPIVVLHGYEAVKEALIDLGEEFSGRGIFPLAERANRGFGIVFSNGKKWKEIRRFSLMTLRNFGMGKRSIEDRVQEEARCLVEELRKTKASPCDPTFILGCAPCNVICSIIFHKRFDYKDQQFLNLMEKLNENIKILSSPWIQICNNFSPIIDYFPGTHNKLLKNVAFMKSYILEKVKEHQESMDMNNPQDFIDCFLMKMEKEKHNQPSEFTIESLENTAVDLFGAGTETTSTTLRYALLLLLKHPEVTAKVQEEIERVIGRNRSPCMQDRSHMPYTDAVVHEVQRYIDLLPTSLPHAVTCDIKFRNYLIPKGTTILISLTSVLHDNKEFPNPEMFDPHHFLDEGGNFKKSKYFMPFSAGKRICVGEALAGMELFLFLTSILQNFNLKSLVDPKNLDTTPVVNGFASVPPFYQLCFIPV"}, "[8]": {"biological_target": "Cytochrome P450 2C19 (Homo sapiens, UniProt P33261)", "sequence (P33261 whole entry)": "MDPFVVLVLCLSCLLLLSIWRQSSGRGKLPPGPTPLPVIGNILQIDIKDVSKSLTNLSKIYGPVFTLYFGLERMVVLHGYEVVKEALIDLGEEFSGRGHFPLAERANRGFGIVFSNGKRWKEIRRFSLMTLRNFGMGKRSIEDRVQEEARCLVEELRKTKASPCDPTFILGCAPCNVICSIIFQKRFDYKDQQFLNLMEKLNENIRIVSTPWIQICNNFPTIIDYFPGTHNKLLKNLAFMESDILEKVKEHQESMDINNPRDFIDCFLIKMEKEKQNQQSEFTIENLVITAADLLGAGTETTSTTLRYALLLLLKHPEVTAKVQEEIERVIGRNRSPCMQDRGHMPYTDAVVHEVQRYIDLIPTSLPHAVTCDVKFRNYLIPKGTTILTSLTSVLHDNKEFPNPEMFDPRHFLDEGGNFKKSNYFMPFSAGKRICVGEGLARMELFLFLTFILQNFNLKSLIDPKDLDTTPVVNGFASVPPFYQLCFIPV", "assay": "Cytochrome panel assay with activity outcomes. Panel member name: p450-cyp2c19 Compounds with AC50 equal or less than 10 uM are considered active", "assay_type": "functional"}, "[9]": {"biological_target": "Cytochrome P450 3A4 (Homo sapiens, UniProt P08684)", "sequence (P08684 whole entry)": "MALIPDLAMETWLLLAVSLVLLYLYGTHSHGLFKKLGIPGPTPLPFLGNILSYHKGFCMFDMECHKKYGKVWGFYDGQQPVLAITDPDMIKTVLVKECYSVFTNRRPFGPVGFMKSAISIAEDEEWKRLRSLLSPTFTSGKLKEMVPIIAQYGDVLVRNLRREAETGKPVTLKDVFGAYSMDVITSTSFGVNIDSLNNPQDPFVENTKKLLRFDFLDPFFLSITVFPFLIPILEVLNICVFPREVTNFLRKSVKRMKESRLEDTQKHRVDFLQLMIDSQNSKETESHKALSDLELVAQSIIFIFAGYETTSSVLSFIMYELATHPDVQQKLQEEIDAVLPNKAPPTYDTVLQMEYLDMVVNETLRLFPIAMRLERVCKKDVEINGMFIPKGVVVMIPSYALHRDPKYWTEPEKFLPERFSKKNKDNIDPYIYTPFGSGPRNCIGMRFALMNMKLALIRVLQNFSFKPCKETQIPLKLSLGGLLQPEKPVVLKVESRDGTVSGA"}}, "note": "Calls of active or inactive are those of the source.", "data": [{"smiles": "COc1ccc(Cl)cc1Nc1nc(-c2cccnc2)cs1", "values": [{"measurement": "EC50", "setting": "[1]", "result": "3.22 µM (active)"}, {"measurement": "EC50", "setting": "[2]", "result": "14 µM (active)"}]}, {"smiles": "CC(=O)c1c(-c2ccc(Cl)cc2Cl)noc1C", "values": [{"measurement": "EC50", "setting": "[3]", "result": "> 195 µM (not active)"}]}, {"smiles": "COc1ccccc1NC(=O)c1ccc(N2CC3CC(C2)c2cccc(=O)n2C3)c(NC(=O)c2ccncc2)c1", "note": "(centres undefined)", "values": [{"measurement": "EC50", "setting": "[3]", "result": "> 195 µM (not active)"}]}, {"smiles": "COc1ccc(-c2[nH]ncc2N=Nc2cc(C)cc(C)c2)cc1", "values": [{"measurement": "EC50", "setting": "[4]", "result": "23.1 µM (active)"}, {"measurement": "EC50", "setting": "[5]", "result": "> 150 µM (not active)"}, {"measurement": "EC50", "setting": "[6]", "result": "> 150 µM (not active)"}]}, {"smiles": "Cc1nn(-c2ccccc2)c(C)c1/C=N/NC(=O)c1cc(C23CC4CC(CC(C4)C2)C3)[nH]n1", "values": [{"measurement": "EC50", "setting": "[4]", "result": "5.31 µM (active)"}, {"measurement": "EC50", "setting": "[5]", "result": "10.3 µM (active)"}, {"measurement": "EC50", "setting": "[6]", "result": "46.2 µM (active)"}]}, {"smiles": "COC(=O)c1ccc(NC(=O)c2cc3sccc3n2C)cc1", "values": [{"measurement": "AC50", "setting": "[7]", "result": "10 µM (inconclusive)"}]}, {"smiles": "COc1cccc(-c2cncnc2NC2CCNCC2)c1", "values": [{"measurement": "AC50", "setting": "[8]", "result": "inconclusive"}]}, {"smiles": "CCCCNC(=O)c1onc(CSc2cccc(Cl)c2)c1C(=O)O", "values": [{"measurement": "EC50", "setting": "[3]", "result": "> 195 µM (not active)"}]}, {"smiles": "COC(=O)[C@H]1C[C@@H]1[C@H](NC(=O)c1ccccc1)c1ccccc1", "values": [{"measurement": "AC50", "setting": "[7]", "result": "39.8 µM (inconclusive)"}]}, {"smiles": "CN(CCc1ccccn1)c1ccc2c(c1)Cc1ccccc1-2", "values": [{"measurement": "AC50", "setting": "[7]", "result": "7.94 µM (inconclusive)"}]}, {"smiles": "COCCn1c(C(=O)N(C)C)cc2c1C[C@H]1CN(C(=O)c3ccccc3)[C@@](Cc3ccc(F)cc3)(C(=O)OC)[C@@H]21", "values": [{"measurement": "AC50", "setting": "[8]; read-out: AC50", "result": "39.8 µM (inconclusive)"}, {"measurement": "AC50", "setting": "[7]", "result": "25.1 µM (inconclusive)"}]}, {"smiles": "COc1ccc(Cl)cc1C(=O)NNC(=S)NC(=O)c1cc(-c2ccccc2)nc2ccccc12", "values": [{"measurement": "EC50", "setting": "[4]", "result": "1.31 µM (active)"}, {"measurement": "EC50", "setting": "[5]", "result": "> 150 µM (not active)"}, {"measurement": "EC50", "setting": "[6]", "result": "> 150 µM (inconclusive)"}]}, {"smiles": "CCOC(=O)c1c(-c2ccc(OC)cc2)csc1NC=C1C(=O)CCCC1=O", "values": [{"measurement": "EC50", "setting": "[4]", "result": "66 µM (active)"}, {"measurement": "EC50", "setting": "[5]", "result": "> 150 µM (not active)"}, {"measurement": "EC50", "setting": "[6]", "result": "32.7 µM (active)"}]}, {"smiles": "Cc1ccc(SCCCn2cncn2)cc1", "values": [{"measurement": "EC50", "setting": "[3]", "result": "> 195 µM (not active)"}]}, {"smiles": "CCOC(=O)c1c(-c2ccccc2)nc2ccc(Cl)cn12", "values": [{"measurement": "AC50", "setting": "[7]", "result": "15.8 µM (inconclusive)"}]}, {"smiles": "Brc1ccc(C2C3=C(Nc4ncnn42)c2ccccc2OC3c2ccncc2)cc1", "note": "(centres undefined)", "values": [{"measurement": "EC50", "setting": "[4]", "result": "22.4 µM (active)"}, {"measurement": "EC50", "setting": "[5]", "result": "> 150 µM (not active)"}, {"measurement": "EC50", "setting": "[1]", "result": "4.12 µM (active)"}, {"measurement": "EC50", "setting": "[2]", "result": "> 60 µM (not active)"}, {"measurement": "EC50", "setting": "[6]", "result": "21.5 µM (active)"}]}, {"smiles": "Cc1cc(OCC(=O)OC(C)C)c2c3c(c(=O)oc2c1)CCCC3", "values": [{"measurement": "AC50", "setting": "[9]", "result": "28.2 µM (inconclusive)"}]}, {"smiles": "Oc1ccccc1C1CCCCC1c1ccccc1", "note": "(centres undefined)", "values": [{"measurement": "EC50", "setting": "[4]", "result": "3.83 µM (active)"}, {"measurement": "EC50", "setting": "[5]", "result": "12.7 µM (active)"}, {"measurement": "EC50", "setting": "[6]", "result": "50.4 µM (active)"}]}, {"smiles": "Cc1nn(Cc2ccccc2)c(C)c1NC(=O)c1noc2c1CCc1ccccc1-2", "values": [{"measurement": "EC50", "setting": "[3]", "result": "> 195 µM (not active)"}]}, {"smiles": "CSc1nc(Cc2ccccc2)cc(=O)[nH]1", "values": [{"measurement": "EC50", "setting": "[3]", "result": "> 195 µM (not active)"}]}, {"smiles": "COc1cc(OC)cc(C(=O)N[C@H](C(=O)OCC(=O)N2CCc3ccccc32)C(C)C)c1", "values": [{"measurement": "EC50", "setting": "[3]", "result": "> 195 µM (not active)"}]}, {"smiles": "O=C(O)c1cc(-c2ccc(-c3ccc(-c4cc(C(=O)O)c5cc(Cl)ccc5n4)cc3)cc2)nc2ccc(Cl)cc12", "values": [{"measurement": "AC50", "setting": "[7]", "result": "3.16 µM (inconclusive)"}]}, {"smiles": "Oc1ccccc1/N=C/c1c(O)ccc2oc3c(c12)CCCC3", "values": [{"measurement": "EC50", "setting": "[4]", "result": "7.61 µM (active)"}, {"measurement": "EC50", "setting": "[5]", "result": "> 150 µM (not active)"}, {"measurement": "EC50", "setting": "[6]", "result": "10.6 µM (active)"}]}, {"smiles": "CC(OC(=O)CN1C(=O)NC2(CCCC2)C1=O)C(=O)c1ccccc1", "note": "(centres undefined)", "values": [{"measurement": "EC50", "setting": "[3]", "result": "> 195 µM (not active)"}]}, {"smiles": "CN1CCN(c2ccc(S(=O)(=O)N3CCCCC3)cc2[N+](=O)[O-])CC1", "values": [{"measurement": "EC50", "setting": "[1]", "result": "0.81 µM (active)"}, {"measurement": "EC50", "setting": "[2]", "result": "> 60 µM (not active)"}]}, {"smiles": "CC(C)(C)NC(=O)C1CC(=O)OC12CCOC(C)(C)C2", "note": "(centres undefined)", "values": [{"measurement": "EC50", "setting": "[3]", "result": "> 195 µM (not active)"}]}, {"smiles": "COC(=O)[C@H]1C[C@@H]1[C@H](NC(=O)c1cnccn1)c1ccccc1", "values": [{"measurement": "AC50", "setting": "[9]", "result": "7.94 µM (inconclusive)"}]}, {"smiles": "CC(=O)c1cc(C#N)c(Oc2cccc(C(F)(F)F)c2)nc1C", "values": [{"measurement": "AC50", "setting": "[7]", "result": "25.1 µM (inconclusive)"}]}, {"smiles": "Cc1cc(NC2CCCC2)n2nc(C)c(-c3ccccc3)c2n1", "values": [{"measurement": "EC50", "setting": "[1]", "result": "3.4 µM (active)"}, {"measurement": "EC50", "setting": "[2]", "result": "> 60 µM (not active)"}]}]}
